In patent US11788060B2, “Small molecule compound composition that efficiently induces differentiation of human pluripotent stem cells into myocardial cells” (Shanghai Institute of Nutrition and Health, Chinese Academy …, priority 2016, dated 2023):

How the values were obtained:
stem cells [1] = assay: Annexin V/PI staining of apoptosis and cell death; assay type: cell-based, human
Procedure: Annexin V/PI staining: Annexin V/PI kit (Roche) was used in this experiment. The cells were cultured in 24-well plates. At the specified time, the cells were digested into single cells with accutase and washed once with PBS. The cells were incubated with staining solution containing Annexin V and PI for 10 minutes. Care was taken to avoid light. 5 volumes of incubation solution was added to dilute thereby stopping the reaction and tested by flow cytometry immediately, the excitation lights were 488 nm and 518 nm, the emission lights were 488-540 nm and 617 nm.

stem cells [2] = assay: Cell cycle analysis and BrdU cell proliferation assay; assay type: cell-based, human; settings: compared with DMSO control group
Procedure: After 10 μM BrdU (Sigma-Aldrich) was added to incubate the cells for 1 hour, cells were harvested, digested and centrifuged at 300 g for 5 minutes. Cells were collected, washed once with PBS containing 0.5% BSA (wash solution) at room temperature, and resuspended in 1 ml of PBS. 3 ml of pre-cooled ethanol was added with shaking and settled for 20 minutes at room temperature. Centrifuge to remove the supernatant, wash once with PBS, centrifuge to remove supernatant, loosen the pellet by flicking a few times, add 1 ml of the freshly prepared denaturation solution (2M HCl) and mix. Allow to stand at room temperature for 20 minutes; add 1 ml of 0.1 M sodium borate (pH 8.5) to neutralize for 2 minutes at room temperature; rinse once and add anti-BrdU antibody (BD Biosciences 1:50 dilution) prepared with PBS containing 0.5% Tween 20/0.5% BSA (Sigma-Aldrich); aspirate primary antibody, rinse with 1 ml wash solution, add Alexa-488-anti-mouse (1:1000), incubate for 20 minutes at room temperature; aspirate secondary antibody, rinse again, resuspend with 0.5 ml 10 μg/ml PI solution and incubate for 30 minutes at room temperature. The supernatant was removed by centrifugation, rinsed again with a wash solution, and tested with flow cytometry.

[3] = system: human embryonic stem cells; assay: Cell count of stem cells in high-density monolayer culture; assay type: cell-based; settings: DMSO, CHIR or CHIR+rapamycin; 5×10^4/cm^2, days 1-4
Procedure: The correlated detection was performed under three treatment conditions of DMSO, CHIR and CHIR+rapamycin. […] (Due to the replacement of the culture medium on the 4th day, stem cells underwent massive death because of the rapid changes in the environment).

Parp = assay: Western blot of Parp cleavage; assay type: cell-based, human; settings: first 4 days of treatment
From the text: Wherein figure (A and B) show the influence of different small molecules on proliferation rate of the stem cells by means of cell cycle analysis and BrdU proliferation detection. (C) Western blot analysis of intracellular Parp protein cleavage to estimate cell death under different treatment. (D) Influence of rapamycin on activity of apoptosis executive caspase 3/7 determined by luciferase reporter system. (E) Detection of the proportion of cell death treated with or without rapamycin by Annexin V/PI staining at the end of the culture on day 3 and day 4. […] All the results are statistically analyzed for at least 3 independently repeated experiments (* P<0.05, ** P<0.01).
Caspase 3, 6, and 7 are the execution proteins of apoptosis and are mainly responsible for the cleavage of structural proteins and regulatory proteins in the nucleus and cytoplasm.

## Cc1c[nH]c(-c2cnc(NCCNc3ccc(C#N)cn3)nc2-c2ccc(Cl)cc2Cl)n1 [CHIR99021]
Stem cells [1]; 4th day, 24 hours after replacing with RPMI/B27 differentiation medium
  proportion of cell death: nearly half
Stem cells [1]; end of culture on the third day
  Annexin V-positive apoptotic cells: 25.8%
Stem cells [2]
  proportion of cells in S phase and proportion of BrdU positive cells: slightly increased
[3]
  stem cell number: accelerated the increase in stem cell number in the first 3 days
Parp
  Parp cleavage band: gradually increased
